Source: patent publication US20260355328A1, “A complex comprising a cargo and a targeting moiety binding intelectin-1” (Stichting Radboud universitair medisch centrum, priority 2022, published 2026)

Columns and labels:
[1] = tested on: mouse glomerular endothelial cells (mGEnC); assay: Uptake of fluorescein-labelled peptides by mGEnC (flow cytometry); assay type: cell-based; details: different concentrations, 20 minutes at 37 °C, FIG. 1A
Method: (§1) Conditionally immortalized mouse glomerular endothelial cells (mGEnC) were cultured as previously described (Rops et al. Kidney Int. 2004; 66 (6): 2193-201). HeLa cells were employed as a frequently used model cell line and were cultured in DMEM/F12 medium containing 10% fetal calf serum (FCS). For studying uptake, cells were incubated in their respective medium with 10% FCS containing fluorescein-labelled peptides at the indicated concentrations for 20 minutes at 37 °C. In some cases, cells were activated for 16 hours with 10 ng/ml mouse TNFα (Sigma), or co-incubated with Alexa Fluor 633-labeled transferrin (Invitrogen Molecular Probes). Subsequently, cells were washed with PBS and analysed using confocal laser-scanning microscopy on a TCS SP5 confocal microscope (Leica Microsystems), or detached by trypsin/EDTA and analysed on a FACSCalibur Flow cytometer (BD Biosciences) by measuring 20,000 cells.

[2] = tested on: HeLa cells; assay: Uptake of fluorescein-labelled peptides by HeLa cells (flow cytometry); assay type: cell-based, human; details: FIG. 1B
Method: as §1

[3] = tested on: heparan sulphate on mGEnC; assay: Peptide uptake by mGEnC after removal of heparan sulphate (heparinases); assay type: cell-based, mouse; details: 5 μM, FIG. 1D
Method: (D) Digestion of heparan sulphate from the cell surface has a limited effect on the uptake of lactoferrin-derived peptides (5 μM). Percentage of uptake for heparan sulphate-cleaved compared to undigested cells is shown.
as §1
In order to further substantiate that uptake of hLF occurred by a mechanism different of the one typically observed for CPPs, we addressed the role of heparan sulphate proteoglycans (HSPGs).

[4] = tested on: mGEnC treated with TNFα; assay: Uptake by mGEnC after activation with TNFα; assay type: cell-based; details: 10 ng/ml mouse TNFα 16 hours
Method: as §1
(§2) Conditionally immortalized mouse glomerular endothelial cells (mGEnC) were cultured as previously described (Rops et al. Kidney Int. 2004; 66 (6): 2193-201). Cells were incubated in their respective medium with 10% FCS containing fluorescein-labelled peptides at 5 μM for 20 minutes at 37 °C. In some cases, cells were activated for 16 hours with 10 ng/ml mouse TNFα (Sigma), or co-incubated with 100 μg/ml Alexa Fluor 633-labeled transferrin (Invitrogen Molecular Probes). Pre-treatment with ITLN-1 or control siPool siRNA (siTools Biotech) was performed according to the manufacturer's protocol. Subsequently, cells were detached with trypsin/EDTA and analysed by flow cytometry on a FACSCalibur Flow cytometer (BD Biosciences). For immunostaining, cells or 5-μm cryosections of mouse kidney were fixed for 10 minutes with 4% paraformaldehyde, and in the indicated cases permeabilized with 0.3% Triton X-100 in PBS. Subsequently, cells and cryosections were stained for 1 hour with anti-intelectin-1 (R&D Systems) or anti-LRP-1 (Abcam) antibodies, and after washing incubated for 1 hour with the appropriate Alexa Fluor-labelled secondary antibody (Invitrogen Molecular Probes). Cells and cryosections were analyzed by confocal laser-Scanning microscopy was performed using a TCS SP5 confocal microscope (Leica Microsystems).

[5] = tested on: mGEnC; assay: Intracellular localization / co-localization with transferrin in mGEnC (confocal microscopy); assay type: cell-based, mouse; details: FIG. 2C
Method: as §1
Conditionally immortalized mouse glomerular endothelial cells (mGEnC) were cultured as previously described (Rops et al. Kidney Int. 2004; 66 (6): 2193-201). […] Subsequently, cells were detached with trypsin/EDTA and analysed by flow cytometry on a FACSCalibur Flow cytometer (BD Biosciences). […] Cells and cryosections were analyzed by confocal laser-Scanning microscopy was performed using a TCS SP5 confocal microscope (Leica Microsystems).

[6] = target: T1, ITLN-1 (Mus musculus, UniProt O88310); assay: Uptake by mGEnC after downregulation of ITLN-1 with siRNA; assay type: cell-based; details: peptides at 5 μM, FIG. 2E
T1 construct: ITLN-1 siRNA versus control siRNA
T1 sequence (O88310 19-298): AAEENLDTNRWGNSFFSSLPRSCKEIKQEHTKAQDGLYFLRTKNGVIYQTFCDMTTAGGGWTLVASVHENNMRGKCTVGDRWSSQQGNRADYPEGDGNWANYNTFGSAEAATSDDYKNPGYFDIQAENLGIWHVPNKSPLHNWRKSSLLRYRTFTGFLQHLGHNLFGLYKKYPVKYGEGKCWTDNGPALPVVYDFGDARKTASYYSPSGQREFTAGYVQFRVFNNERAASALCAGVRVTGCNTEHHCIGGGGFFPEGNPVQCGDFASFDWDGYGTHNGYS
Method: as §2

[7] = tested on: mGEnC; assay: Uptake in multiple cell lines (Table 2): mGEnC; assay type: cell-based; details: fluorescein-labeled peptide, confocal microscopy, mGEnC (mouse)
Method: as §1
as §2, with “Subsequently, cells and cryosections were stained for 1 hour with anti-intelectin-1 (R&D Systems) or anti-LRP-1 (Abcam) antibodies, and after washing incubated for 1 hour with the appropriate Alexa Fluor-labelled secondary antibody (Invitrogen Molecular Probes).” left out

[8] = tested on: hGEnC; assay: Uptake in multiple cell lines (Table 2): hGEnC; assay type: cell-based; details: fluorescein-labeled peptide, confocal microscopy, hGEnC (human)
[9] = tested on: EOMA; assay: Uptake in multiple cell lines (Table 2): EOMA; assay type: cell-based; details: fluorescein-labeled peptide, confocal microscopy, EOMA (mouse)
[10] = tested on: HUVEC; assay: Uptake in multiple cell lines (Table 2): HUVEC; assay type: cell-based; details: fluorescein-labeled peptide, confocal microscopy, HUVEC (human)
[11] = tested on: Podocytes; assay: Uptake in multiple cell lines (Table 2): Podocytes; assay type: cell-based; details: fluorescein-labeled peptide, confocal microscopy, Podocytes (mouse)
Method: as §1
as §2, with “Subsequently, cells and cryosections were stained for 1 hour with anti-intelectin-1 (R&D Systems) or anti-LRP-1 (Abcam) antibodies, and after washing incubated for 1 hour with the appropriate Alexa Fluor-labelled secondary antibody (Invitrogen Molecular Probes).” left out

[12] = tested on: HeLa; assay: Uptake in multiple cell lines (Table 2): HeLa; assay type: cell-based; details: fluorescein-labeled peptide, confocal microscopy, HeLa (human)
Method: as §1
as §2, with “Subsequently, cells and cryosections were stained for 1 hour with anti-intelectin-1 (R&D Systems) or anti-LRP-1 (Abcam) antibodies, and after washing incubated for 1 hour with the appropriate Alexa Fluor-labelled secondary antibody (Invitrogen Molecular Probes).” left out

[13] = Biodistribution of 111In-DOTA-labelled hLF after intravenous injection in healthy mice; assay type: in vivo, C57BI/6 mice; details: i.v.
Method: Female and male 10-12-weeks-old C57BI/6 mice (Charles River) were injected via the tail vein with 50 μl of 200 μM 111 In-DOTA-labelled hLF peptide. Assuming a blood volume of 1.2 ml this would theoretically result in a concentration of ~8.5 μM in the circulation. Urine, blood and organs were collected 4 hours after injection, and radioactivity was measured in a gamma-counter. The percentage injected dose per gram of tissue (% ID/gram) was calculated for each tissue along with % of the absorbed dose.

[14] = Biodistribution of Cy5.5-hLF in LPS-induced inflammation mouse model; assay type: in vivo, C57BI/6 mice
Method: At the start, 8- to 10-week-old C57BI/6 mice (Charles River) received an intraperitoneal injection with either 100 μl of 2 mg/kg LPS in 5% glucose solution, or only 5% glucose solution. After 24 hours, mice were injected with 50 μl of 200 μM Cy5.5-labelled peptide. Assuming a blood volume of 1.2 ml this would theoretically result in a concentration of ~8.5 μM in the circulation. After 4 hours, organs were perfused with phosphate buffer, followed by 4% PFA. Organs were removed and peptide distribution was analysed using the In Vivo Imaging System (IVIS; Perkin Elmer). Organs were then fixed by overnight incubation in 4% PFA, followed by overnight incubation in 30% sucrose. Subsequently, organs were frozen for analysis by confocal laser-Scanning microscopy using a TCS SP5 confocal microscope (Leica Microsystems). Glomerular and tubular regions were selected in microscopical pictures from which the mean fluorescence intensity was determined by ImageJ software.

[15] = Proteolytic breakdown and serum protein binding of the peptides; assay type: in vitro ADME
[16] = tested on: heparan sulphate proteoglycans (HSPGs); details: HeLa cells, literature; cited from earlier work
[17] = target: T1, ITLN-1; assay: ITLN-1 protein expression in mGEnC; assay type: cell-based; details: 10 ng/ml TNFα, FIG. 2B
Method: as §2

[18] = Biodistribution of full-length lactoferrin, lactoferricin and hLF-6 in LPS-challenged mice (IVIS); assay type: in vivo; details: fluorescent label, i.v., 2 h
Method: Lactoferrin and lactoferricin are cloned in an expression plasmid containing the C-terminal Sortase-sequence protein-LPETG-HHHHHH. LPETGHHHHHH is SEQ ID NO: 98. Next, the protein is expressed overnight in E. coli and purified from sonicated bacterial cell lysates by Ni-NTA beads using 400 mM imidazole to elute the proteins. After overnight dialysis, full-length lactoferrin and hLF-6 are labelled by means of a Sortase exchange reaction on the C-terminus with a fluorescent dye (Alexa647 or Cy5.5) for 2 h at 4 °C using a fluorescently labelled donor peptide (formula:biotin-GSSG-LPETG-label or biotin-GSSG-LPETG-PEG40k-label) as substrate GSSGLPETG is SEQ ID NO: 99. Excess donor peptide is removed by means of streptavidin binding of the biotin tag on the N-terminus of the donor peptide. Next, the purified labelled protein/peptide is injected into LPS-challenged mice via intravenous injection in the tail vein. Mice are sacrificed after 2 h, and organs harvested for imaging by IVIS. Biodistribution is quantified for each organ, and relative distribution is shown.

[19] = tested on: proteoglycans on endothelial and epithelial cells; details: literature; cited from earlier work

KCFQWQRNMRKVRGPPVSCIKR [hLF, lactoferrin-derived 22-amino acid peptide]
uptake in mGEnC [1]: much more efficient dose-dependent uptake
uptake in HeLa cells [2]: show uptake
decrease in uptake after removal of heparan sulphate [3]: ~ 20%
effect of TNFα treatment on uptake [4]: increased uptake
increase of uptake after TNFα treatment ([4]; 5 μM, FIG. 1E): 50-100%
co-localization with fluorescently-labelled transferrin [5]: co-localized completely
uptake after ITLN-1 siRNA compared to control siRNA [6]: reduced uptake
Uptake (Table 2) [7]: High
Uptake (Table 2) [8]: High
Uptake (Table 2) [9]: High
Uptake (Table 2) [10]: High
Uptake (Table 2) [11]: High
Uptake (Table 2) [12]: High
biodistribution (main organ) ([13]; 111In-DOTA-labelled, 4 hours, FIG. 3A): predominantly located in the kidney
concentration in the blood after 4 hours [13]: < 1%
absorbed dose in kidney and liver combined of total dose in all the organs ([13]; 4 hours): more than 90%
distribution to other organs including intestines, skin and heart, fold lower ([13]; 4 hours): more than 20 fold
distribution to the liver, fold lower than kidney ([13]; 4 hours): approximately 2 fold
kidney targeting, female versus male mice ([13]; 4 hours): No significant differences
peptide concentration in spleen and lungs, fold lower than kidney ([13]; 4 hours): 5-10 fold
signal in spleen, heart, eyes, brain and lymph nodes ([14]; IVIS, LPS-treated and non-treated mice): virtually undetectable
tubular uptake of non-conjugated / free peptide ([14]; i.v. injection in mice): tubular uptake
binding to serum proteins as reason for preferential uptake by mGEnC [15]: not due to a difference in proteolytic breakdown of the peptides before uptake, or a difference in the binding to serum proteins
proteolytic breakdown as reason for preferential uptake by mGEnC ([15]; before uptake): not due to a difference in proteolytic breakdown
dependence of uptake on HSPG [16]: depends on the presence of HSPG

TNFα
ITLN-1 expression after activation [17]: augmented ITLN-1 expression

lactoferricin
bio-distribution [18]: accumulation predominantly in liver and spleen and less in kidney, brain and intestine
binding to proteoglycans [19]: bind to proteoglycans on endothelial and epithelial cells
